In assay [1] the target is GDP-bound NRAS wild-type protein (Homo sapiens, UniProt P01111). In words: Binding to NRAS by surface plasmon resonance (SPR), Single Cycle Kinetics. Particulars: SPR, GDP-bound NRAS wild-type protein vs GDP-bound KRAS wild-type protein. On the technique in general: In SPR one partner is held on a chip, and binding of the other changes the refractive index at the surface.

In assay [2] the target is GDP-bound HRAS wild-type protein (Homo sapiens, UniProt P01112). In words: Binding to HRAS by surface plasmon resonance (SPR), Single Cycle Kinetics. Particulars: SPR, GDP-bound HRAS wild-type protein vs GDP-bound KRAS wild-type protein.
Assay [3] addresses GDP-bound KRAS wild-type protein (Homo sapiens, UniProt P01116). In words: Binding to KRAS by surface plasmon resonance (SPR), Single Cycle Kinetics. Particulars: SPR, Single Cycle Kinetics, GDP-bound KRAS wild-type protein; read-out: KRAS KD.
The test system of assay [4] is human lung cancer strain NCI-H441.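 Also: cell proliferation inhibition after four days measured by CellTiter-Glo.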

The structures appear in SMILES notation.

Sequence of GDP-bound HRAS wild-type protein (P01112 whole entry): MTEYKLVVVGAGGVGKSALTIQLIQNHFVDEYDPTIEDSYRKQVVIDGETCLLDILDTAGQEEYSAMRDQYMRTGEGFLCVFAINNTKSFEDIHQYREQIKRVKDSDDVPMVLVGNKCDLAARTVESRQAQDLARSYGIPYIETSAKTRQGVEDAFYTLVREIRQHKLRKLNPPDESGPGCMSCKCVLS
Sequence of GDP-bound KRAS wild-type protein (P01116 whole entry): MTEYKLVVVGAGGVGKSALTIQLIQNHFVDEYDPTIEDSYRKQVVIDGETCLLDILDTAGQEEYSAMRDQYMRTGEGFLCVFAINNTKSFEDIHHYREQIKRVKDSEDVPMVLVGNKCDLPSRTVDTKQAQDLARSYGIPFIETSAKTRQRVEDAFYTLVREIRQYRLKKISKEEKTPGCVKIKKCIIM
Sequence of GDP-bound NRAS wild-type protein (P01111 whole entry): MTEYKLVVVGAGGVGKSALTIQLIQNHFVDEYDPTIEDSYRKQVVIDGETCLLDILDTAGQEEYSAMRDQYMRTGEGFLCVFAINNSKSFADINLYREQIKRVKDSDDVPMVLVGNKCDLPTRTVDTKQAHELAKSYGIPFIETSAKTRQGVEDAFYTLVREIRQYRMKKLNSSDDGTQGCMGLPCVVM

In the case of `CCO[C@@H]1C[C@H]2C(=O)NC3(CCC3)C(=O)N(C)[C@@H](C3CCCC3)C(=O)N(C)[C@H](C(=O)N(C)C)CC(=O)N(C)[C@@H](Cc3cccs3)C(=O)N[C@@H]([C@@H](C)CC)C(=O)N(C)CC(=O)N(C)[C@H]3CCCCCN(C3=O)[C@@H](Cc3ccc(C(F)(F)F)cc3)C(=O)N(C)CC(=O)N[C@@H](CCc3cc(F)c(C(F)(F)F)c(F)c3)C(=O)N2C1` [PP1169], the “NRAS/KRAS (ratio of KD value for NRAS to KD value for KRAS)” value in assay [1] is “B (a compound having 3 or more and less than 10 is denoted as B)”. Further, in assay [2], the “HRAS/KRAS (ratio of KD value for HRAS to KD value for KRAS)” value was “B (a compound having 3 or more and less than 10 is denoted as B)”. For the same compound, the Kd (usually the constant that tells how readily two partners part at equilibrium) in assay [3] was 0.32 nM. Besides, the IC50 (as a rule, the concentration needed to halve the response being measured) in assay [4] was determined as 74 nM.
As to `CCO[C@@H]1C[C@H]2C(=O)NC3(CCC3)C(=O)N(C)[C@@H](C3CCCC3)C(=O)N(C)[C@H](C(=O)N(C)C)CC(=O)N(C)[C@@H](Cc3ccccc3C#N)C(=O)N[C@@H]([C@@H](C)CC)C(=O)N(C)CC(=O)N(C)[C@H]3CCCCCN(C3=O)[C@@H](Cc3ccc(C(F)(F)F)cc3)C(=O)N(C)CC(=O)N[C@@H](CCc3cc(F)c(C(F)(F)F)c(F)c3)C(=O)N2C1` [PP1171], in assay [1], the “NRAS/KRAS (ratio of KD value for NRAS to KD value for KRAS)” value is “B (a compound having 3 or more and less than 10 is denoted as B)”. Further, the “HRAS/KRAS (ratio of KD value for HRAS to KD value for KRAS)” value in assay [2] was “B (a compound having 3 or more and less than 10 is denoted as B)”. Besides, the Kd in assay [3] amounted to 0.69 nM. For the same compound, it took 118 nM to reach half-maximal inhibition in assay [4] (IC50).
With `CCO[C@@H]1C[C@H]2C(=O)NC3(CCC3)C(=O)N(C)[C@@H](C3CCCC3)C(=O)N(C)[C@H](C(=O)N(C)C)CC(=O)N(C)[C@@H](Cc3cccc(C#N)c3)C(=O)N[C@@H]([C@@H](C)CC)C(=O)N(C)CC(=O)N(C)[C@H]3CCCCCN(C3=O)[C@@H](Cc3ccc(C(F)(F)F)cc3)C(=O)N(C)CC(=O)N[C@@H](CCc3cc(F)c(C(F)(F)F)c(F)c3)C(=O)N2C1` [PP1172], in assay [1], the “NRAS/KRAS (ratio of KD value for NRAS to KD value for KRAS)” value was “B (a compound having 3 or more and less than 10 is denoted as B)”. In addition, the “HRAS/KRAS (ratio of KD value for HRAS to KD value for KRAS)” value in assay [2] is “B (a compound having 3 or more and less than 10 is denoted as B)”. Further, the Kd in assay [3] was determined as 0.17 nM. Moreover, the midpoint of inhibition in assay [4], the IC50, lay at 48.3 nM.
As to `CCO[C@@H]1C[C@H]2C(=O)NC3(CCC3)C(=O)N(C)[C@@H](C3CCCC3)C(=O)N(C)[C@H](C(=O)N(C)C)CC(=O)N(C)[C@@H](Cc3ccc(C#N)cc3)C(=O)N[C@@H]([C@@H](C)CC)C(=O)N(C)CC(=O)N(C)[C@H]3CCCCCN(C3=O)[C@@H](Cc3ccc(C(F)(F)F)cc3)C(=O)N(C)CC(=O)N[C@@H](CCc3cc(F)c(C(F)(F)F)c(F)c3)C(=O)N2C1` [PP1173], the “NRAS/KRAS (ratio of KD value for NRAS to KD value for KRAS)” value in assay [1] was “B (a compound having 3 or more and less than 10 is denoted as B)”. For the same compound, the “HRAS/KRAS (ratio of KD value for HRAS to KD value for KRAS)” value in assay [2] was “B (a compound having 3 or more and less than 10 is denoted as B)”. For the same compound, the Kd in assay [3] came out at 0.18 nM. For the same compound, in assay [4], the IC50 is 70.8 nM.
In the case of `CCO[C@@H]1C[C@H]2C(=O)NC3(CCC3)C(=O)N(C)[C@@H](C3CCCC3)C(=O)N(C)[C@H](C(=O)N(C)C)CC(=O)N(C)[C@@H](Cc3ccc(Cl)c(Cl)c3)C(=O)N[C@@H]([C@@H](C)CC)C(=O)N(C)CC(=O)N(C)[C@H]3CCCCCN(C3=O)[C@@H](Cc3ccc(C(F)(F)F)cc3)C(=O)N(C)CC(=O)N[C@@H](CCc3cc(F)c(C(F)(F)F)c(F)c3)C(=O)N2C1` [PP1174], in assay [1], the “NRAS/KRAS (ratio of KD value for NRAS to KD value for KRAS)” value is “B (a compound having 3 or more and less than 10 is denoted as B)”. For the same compound, in assay [2], the “HRAS/KRAS (ratio of KD value for HRAS to KD value for KRAS)” value is “B (a compound having 3 or more and less than 10 is denoted as B)”. Further, in assay [3], the Kd turned out to be 1 nM. In assay [4], the IC50 is 85.2 nM.
Regarding `CCO[C@@H]1C[C@H]2C(=O)NC3(CCC3)C(=O)N(C)[C@@H](C3CCCC3)C(=O)N(C)[C@H](C(=O)N3CCOCC3)CC(=O)N(C)[C@@H](C)C(=O)N[C@@H]([C@@H](C)CC)C(=O)N(C)CC(=O)N(C)[C@H]3CCCCCN(C3=O)[C@@H](Cc3ccc(F)cc3)C(=O)N(C)CC(=O)N[C@@H](CCc3cc(F)c(C(F)(F)F)c(F)c3)C(=O)N2C1` [PP1175], the “NRAS/KRAS (ratio of KD value for NRAS to KD value for KRAS)” value in assay [1] was “B (a compound having 3 or more and less than 10 is denoted as B)”. The “HRAS/KRAS (ratio of KD value for HRAS to KD value for KRAS)” value in assay [2] was “B (a compound having 3 or more and less than 10 is denoted as B)”. For the same compound, the Kd in assay [3] was 0.16 nM. The compound further returned an IC50 in assay [4] of 23.5 nM.
Consider `CCO[C@@H]1C[C@H]2C(=O)NC3(CCC3)C(=O)N(C)[C@@H](C3CCCC3)C(=O)N(C)[C@H](C(=O)N3CCOCC3)CC(=O)N(C)[C@@H](CC)C(=O)N[C@@H]([C@@H](C)CC)C(=O)N(C)CC(=O)N(C)[C@H]3CCCCCN(C3=O)[C@@H](Cc3ccc(F)cc3)C(=O)N(C)CC(=O)N[C@@H](CCc3cc(F)c(C(F)(F)F)c(F)c3)C(=O)N2C1` [PP1176], for which the “NRAS/KRAS (ratio of KD value for NRAS to KD value for KRAS)” value in assay [1] is “B (a compound having 3 or more and less than 10 is denoted as B)”. In addition, the “HRAS/KRAS (ratio of KD value for HRAS to KD value for KRAS)” value in assay [2] was “B (a compound having 3 or more and less than 10 is denoted as B)”. Also, the Kd in assay [3] was found to be 0.13 nM. In assay [4], this compound gave an IC50 of 50 nM.
On to `CCO[C@@H]1C[C@H]2C(=O)NC3(CCC3)C(=O)N(C)[C@@H](C3CCCC3)C(=O)N(C)[C@H](C(=O)N3CCOCC3)CC(=O)N(C)[C@@H](CC(F)F)C(=O)N[C@@H]([C@@H](C)CC)C(=O)N(C)CC(=O)N(C)[C@H]3CCCCCN(C3=O)[C@@H](Cc3ccc(F)cc3)C(=O)N(C)CC(=O)N[C@@H](CCc3cc(F)c(C(F)(F)F)c(F)c3)C(=O)N2C1` [PP1177], for which the “NRAS/KRAS (ratio of KD value for NRAS to KD value for KRAS)” value in assay [1] was “B (a compound having 3 or more and less than 10 is denoted as B)”. Besides, in assay [2], the “HRAS/KRAS (ratio of KD value for HRAS to KD value for KRAS)” value was “B (a compound having 3 or more and less than 10 is denoted as B)”. Besides, in assay [3], the equilibrium dissociation constant (Kd) amounted to 0.081 nM. The compound also came in with an IC50 in assay [4] of 32.5 nM.
For `CCO[C@@H]1C[C@H]2C(=O)NC3(CCC3)C(=O)N(C)[C@@H](C3CCCC3)C(=O)N(C)[C@H](C(=O)N3CCOCC3)CC(=O)N(C)[C@@H](CC3CC3)C(=O)N[C@@H]([C@@H](C)CC)C(=O)N(C)CC(=O)N(C)[C@H]3CCCCCN(C3=O)[C@@H](Cc3ccc(F)cc3)C(=O)N(C)CC(=O)N[C@@H](CCc3cc(F)c(C(F)(F)F)c(F)c3)C(=O)N2C1` [PP1178], the “NRAS/KRAS (ratio of KD value for NRAS to KD value for KRAS)” value in assay [1] was “B (a compound having 3 or more and less than 10 is denoted as B)”. Moreover, the “HRAS/KRAS (ratio of KD value for HRAS to KD value for KRAS)” value in assay [2] is “B (a compound having 3 or more and less than 10 is denoted as B)”. Besides, the Kd in assay [3] was found to be 0.16 nM. The same compound returned an IC50 in assay [4] of 26.3 nM.
Consider `CCO[C@@H]1C[C@H]2C(=O)NC3(CCC3)C(=O)N(C)[C@@H](C3CCCC3)C(=O)N(C)[C@H](C(=O)N3CCOCC3)CC(=O)N(C)[C@@H](COC)C(=O)N[C@@H]([C@@H](C)CC)C(=O)N(C)CC(=O)N(C)[C@H]3CCCCCN(C3=O)[C@@H](Cc3ccc(F)cc3)C(=O)N(C)CC(=O)N[C@@H](CCc3cc(F)c(C(F)(F)F)c(F)c3)C(=O)N2C1` [PP1179], for which the “NRAS/KRAS (ratio of KD value for NRAS to KD value for KRAS)” value in assay [1] was “B (a compound having 3 or more and less than 10 is denoted as B)”. Also, the “HRAS/KRAS (ratio of KD value for HRAS to KD value for KRAS)” value in assay [2] was “B (a compound having 3 or more and less than 10 is denoted as B)”. In addition, in assay [3], the Kd was determined as 0.091 nM. For the same compound, half-maximal inhibition in assay [4] (IC50) required 56.9 nM.
